# US9029414B2, “Triterpenoid compounds and methods of use thereof” (Biotechnology Research Corporation, priority 2008, dated 2015)
# Tests used:
# [1] = biological target: FP receptor (Homo sapiens, UniProt P43088); assay: Radioligand competition binding assay, FP; details: target PGF, compound at 10 μM in duplicate, read-out: % inhibition of control specific binding
# Protocol: DA001 was further evaluated against 32 receptor binding assays. Radioligand competition assays were conducted whereby DA001 was tested at one concentration (10 uM) in duplicate. […] It could compete with the radioligand [^3H] PGE2 binding at the EP1 and EP4 receptors, and weakly competed with the EP2 and FP receptors.
# To determine the targets of DA compounds, the compound was assessed in binding assays for the family of prostanoid receptors. Both compounds were tested at a single concentration (10 μM) in duplicate. DA001 and DA021 inhibit the ligand binding of prostaglandin E2 receptors EP1, EP2 and EP4 and moderately to prostaglandin (PGF) to its receptor (FP), but not prostaglandin I (PGI2), thromoboxane A and prostaglandin D2 to their receptors.
# [2] = test system: C57BL/6 mice immunized with MOG; assay: Experimental autoimmune encephalomyelitis (EAE) behavioral scores; assay type: in vivo; details: 100 mg/kg oral daily from day of immunization
# Protocol: FIG. 15 illustrates that DA001 improves the behavioral scores of mice with experimental autoimmune encephalomyelitis. C57BL/6 mice were immunized subcutaneously at both sides of their hind limbs with myelin oligodendrocyte glycoprotein (MOG)/Complete Freund's Adjuvant (CFA) kit (Hooke Laboratories) and performed as indicated in the manufacturer's instruction. Albumin/CFA kit (Hooke Laboratories) were used as an immunization control. Oral administration of DA001 at 100 mg/kg was given daily starting from the day of immunization. The vehicle (water) was given to mice injected with MOG or albumin daily via oral administration. Animals were weighed and monitored daily and behavioral impairment was quantified based on the clinical scale. The graph presented here is a composite of four separate EAE trials. **=p≦0.01.
# FIG. 16 illustrates that DA002 improves the behavioral scores of mice with experimental autoimmune encephalomyelitis. C57BL/6 mice were immunized subcutaneously at both sides of their hind limbs with myelin oligodendrocyte glycoprotein (MOG)/Complete Freund's Adjuvant (CFA) kit (Hooke Laboratories) and performed as indicated in the manufacturer's instruction. […] Animals were weighed and monitored daily and behavioral impairment was quantified based on the clinical scale. *=p≦0.05.
# C57BL/6 mice were immunized subcutaneously at both sides of their hind limbs with myelin oligodendrocyte glycoprotein (MOG)/Complete Freund's Adjuvant (CFA) kit (Hooke Laboratories) and performed as in manufacturer's instruction. […] Animals were weighed and monitored daily and behavioral impairment was quantified based on the clinical scale. […]
# On day 0, six-week old male C57BL/6 mice (Hong Kong University of Science and Technology, Animal Care facility) were immunized with 100 μg of myelin oligodendrocyte glycoprotein peptide (MOG35-55)/complete Freund's Adjuvant (CFA) emulsion kit (Hooke Laboratories) was injected subcutaneously at both sides of the tail base. […] The animals were also weighed and the neurological impairment was quantified daily based on the previously published criteria. […]
# [3] = biological target: T1, EP1 receptor (Homo sapiens, UniProt P34995); assay: Cellular receptor functional assay (cAMP), EP1; assay type: cell-based; set-up: expressed in transfected cells; host or cells: CHO cells; details: for Antagonist effect, cAMP measurement: in presence of PGE2
# T1 sequence (P34995 1-402): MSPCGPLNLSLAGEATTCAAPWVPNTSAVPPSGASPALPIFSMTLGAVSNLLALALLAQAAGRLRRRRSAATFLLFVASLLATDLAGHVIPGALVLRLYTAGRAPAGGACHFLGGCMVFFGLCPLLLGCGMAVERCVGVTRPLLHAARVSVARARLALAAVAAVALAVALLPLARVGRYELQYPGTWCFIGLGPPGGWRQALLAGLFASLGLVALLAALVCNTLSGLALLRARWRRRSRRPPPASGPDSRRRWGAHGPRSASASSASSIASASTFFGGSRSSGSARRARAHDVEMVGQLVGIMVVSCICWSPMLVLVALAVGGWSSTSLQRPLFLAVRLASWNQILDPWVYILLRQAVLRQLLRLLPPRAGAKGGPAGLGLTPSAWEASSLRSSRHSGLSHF
# Protocol: (§1) To determine whether the inhibitory effect of DA001 on the ligand binding to EP receptors results from agonist or antagonist activity, DA001 was evaluated at a single concentration (10 μM) on cellular-specific receptor functional assays. Upon ligand binding, the EP receptors are activated which leads to an increase in intracellular cyclic AMP.
# (§2) DA001 (10 μM) was subjected to ligand binding assay with the human EP1 or EP4 receptor over-expressing CHO cells. Results are expressed as a percent of control specific agonist response [100-(measured specific response/control specific agonist response)×100] obtained in the presence of DA001.
# (§3) DA021 inhibits PGE2 ligand binding to EP1, EP2 and EP4 receptors. To determine whether the inhibitory effect is due to agonist or antagonist activity, DA021 was evaluated and compared at 1 concentration (30 uM) in cellular assays assessing receptor function. Upon ligand binding, the EP receptors are activated which leads to an increase in intracellular cyclic AMP.
# [4] = biological target: EP4 receptor (Homo sapiens, UniProt P35408); assay: Cellular receptor functional assay (cAMP), EP4; assay type: cell-based; set-up: expressed in transfected cells; host or cells: CHO cells; details: for Antagonist effect, cAMP measurement: in presence of PGE2
# Sequence of EP4 receptor (P35408 whole entry): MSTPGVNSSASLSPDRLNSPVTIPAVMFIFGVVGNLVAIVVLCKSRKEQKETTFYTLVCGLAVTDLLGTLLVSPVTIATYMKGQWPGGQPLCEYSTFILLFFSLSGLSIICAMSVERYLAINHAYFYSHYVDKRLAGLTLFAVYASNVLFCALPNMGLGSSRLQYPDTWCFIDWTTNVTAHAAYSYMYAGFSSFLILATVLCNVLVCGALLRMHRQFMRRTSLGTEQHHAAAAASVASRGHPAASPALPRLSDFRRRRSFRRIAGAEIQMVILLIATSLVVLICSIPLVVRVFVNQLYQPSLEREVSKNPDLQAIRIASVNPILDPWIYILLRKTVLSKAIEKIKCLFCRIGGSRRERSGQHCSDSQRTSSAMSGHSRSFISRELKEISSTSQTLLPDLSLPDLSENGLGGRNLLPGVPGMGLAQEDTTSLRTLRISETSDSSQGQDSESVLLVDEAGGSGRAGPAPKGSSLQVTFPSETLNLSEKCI
# Protocol: FIG. 13. […] A: Cellular functional assay for EP2; B: Cellular functional assay for […].
# as §1, §2
# DA001 was evaluated at 6 concentrations in cellular assays assessing receptor function. Upon ligand binding, the EP2 and EP4 receptor is activated which leads to an increase in intracellular cyclic AMP.
# as §3
# Sequence of FP receptor (P43088 whole entry): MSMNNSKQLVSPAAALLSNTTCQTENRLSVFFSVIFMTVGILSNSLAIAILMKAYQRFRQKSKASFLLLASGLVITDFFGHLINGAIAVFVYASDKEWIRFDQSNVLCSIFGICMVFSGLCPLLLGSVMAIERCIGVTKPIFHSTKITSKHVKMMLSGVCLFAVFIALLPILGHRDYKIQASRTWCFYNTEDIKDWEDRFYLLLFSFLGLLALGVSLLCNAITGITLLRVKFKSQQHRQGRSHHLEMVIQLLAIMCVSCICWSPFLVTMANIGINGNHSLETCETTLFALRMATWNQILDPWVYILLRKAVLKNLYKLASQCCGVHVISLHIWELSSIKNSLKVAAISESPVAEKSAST
SMILES,inhibition at 10 µM [1] [%],EAE scores vs vehicle-treated EAE mice [2],"Antagonist effect, cAMP measurement ([3]; 10 μM) [%]","Agonist effect, cAMP measurement ([3]; 10 μM, percent of control specific agonist response) [%]","Agonist effect, cAMP measurement ([4]; EP4 receptor, 10 μM) [%]","Antagonist effect, cAMP measurement ([4]; EP4 receptor, 10 μM) [%]","IC50 ([4]; inhibition of PGE2-induced cAMP increase, 6 concentrations, read-out: IC50, antagonist effect) [µM]","Agonist effect, cAMP measurement ([3]; 30 uM)","Antagonist effect, cAMP measurement ([3]; 30 uM)","Antagonist effect, cAMP measurement ([4]; EP4 receptor, 30 uM)"
"C=C(C)[C@@H]1CC[C@]2(C(=O)O)CC[C@]3(C)C(CC[C@@H]4[C@@]5(C)CC[C@H](O[C@@H]6OC[C@H](O)[C@H](O)[C@H]6O[C@@H]6O[C@@H](C)[C@H](O)[C@@H](O)[C@H]6O)[C@@](C)(CO)[C@@H]5CC[C@]43C)[C@@H]12 (stereo partly drawn) [DA001, 3-O-[α-L-rhamnopyranosyl-(1→2)-α-L-arabinopyranosyl]-3,23-dihydroxy-20(29)-lupen-28-oic acid]",27,marked decrease in EAE scores,38,8.1,−11,41,20,–,–,–
C=C(C)[C@@H]1CC[C@]2(/C=N/O)CC[C@]3(C)C(CCC4[C@@]5(C)CCC(=O)[C@@](C)(CO)[C@@H]5CC[C@]43C)C12 (stereo partly drawn) [DA021],52,marked decrease in the EAE scores,–,–,–,–,–,9,87,18
